In patent publication US20230127326A1, “C3-SUBSTITUTED 1H-PYRAZOLO[4,3-d]PYRIMIDINE COMPOUNDS AS TOLL-LIKE RECEPTOR 7 (TLR7) AGONISTS” (BRISTOL-MYERS SQUIBB COMPANY, priority 2020, published 2023):
pEC50: −log10 of the molar value.

How the values were obtained:
CD69 = test: Induction of CD69 in human whole blood; format: cell-based; conditions: 17 hrs at 37° C., y-axis 100% set to 1 uM of resiquimod, average where assay was performed multiple times, read-out: hWB CD69 EC50
Description: The induction of Type I interferon (IFN) MX-1 genes and the B-cell activation marker CD69 are downstream events that occur upon activation of the TLR7 pathway. The following is a human whole blood assay that measures their induction in response to a TLR7 agonist.
Heparinized human whole blood was harvested from human subjects and treated with test TLR7 agonist compounds at 1 mM. The blood was diluted with RPMI 1640 media and Echo was used to predot 10 nL per well giving a final concentration of 1 uM (10 nL in 10 uL of blood). After mixing on a shaker for 30 sec, the plates were covered and placed in a 37° C. chamber for o/n=17 hrs. Fixing/lysis buffer was prepared (5×->1× in H2O, warm at 37° C.; Cat #BD 558049) and kept the perm buffer (on ice) for later use.
For surface markers staining (CD69): prepared surface Abs: 0.045 ul hCD14-FITC (ThermoFisher Cat #MHCD1401)+0.6 ul hCD19-ef450 (ThermoFisher Cat #48-0198-42)+1.5 ul hCD69-PE (cat #BD555531)+0.855 ul FACS buffer. Added 3 ul/well, spin 1000 rpm for 1 min and mixed on shaker for 30 sec, put on ice for 30 mins. Stop stimulation after 30 minutes with 70 uL of prewarmed 1× fix/lysis buffer and use Feliex mate to resuspend (15 times, change tips for each plate) and incubate at 37 C for 10 minutes.
Centrifuge at 2000 rpm for 5 minutes aspirate with HCS plate washer, mix on shaker for 30 sec and then wash with 70 uL in dPBS and pelleted 2×s (2000 rpm for 5 min) and 50 ul wash in FACS buffer pelleted 1×s (2000 rpm for 5 min). Mix on shaker for 30 sec. For Intracellular markers staining (MX-1): Add 50 ul of BD Perm buffer III and mix on shaker for 30 sec. Incubate on ice for 30 minutes (in the dark). Wash with 50 uL of FACS buffer 2× (spin @2300 rpm×5 min after perm) followed by mixing on shaker for 30 sec. Resuspended in 20 ul of FACS buffer containing MX1 antibody ( )(4812)-Alexa 647: Novus Biologicals #NBP2-43704AF647) 20 ul FACS bf+0.8 ul hIgG+0.04 ul MX-1. Spin 1000 rpm for 1 min, mix on shaker for 30 se and the samples were incubated at RT in the dark for 45 minutes followed by washing 2×FACS buffer (spin @2300 rpm×5 min after perm). Resuspend 20 ul (35 uL total per well) of FACS buffer and cover with foil and place in 4° C. to read the following day. Plates were read on iQuePlus. The results were loaded into toolset and […] curves are generated in curve master. The y-axis 100% is set to 1 uM of resiquimod.

human TLR7 = target: T1, human TLR7 (Homo sapiens, UniProt Q9NYK1); test: Human TLR7 agonist activity reporter assay (HEK-Blue TLR7 cells, SEAP reporter); format: cell-based; conditions: 18 h treatment, average where assay was performed multiple times, read-out: hTLR7 Agonism EC50
T1 construct: host or cells: HEK-Blue TLR7 cells (engineered human embryonic kidney cells)
T1 sequence (Q9NYK1 27-1049): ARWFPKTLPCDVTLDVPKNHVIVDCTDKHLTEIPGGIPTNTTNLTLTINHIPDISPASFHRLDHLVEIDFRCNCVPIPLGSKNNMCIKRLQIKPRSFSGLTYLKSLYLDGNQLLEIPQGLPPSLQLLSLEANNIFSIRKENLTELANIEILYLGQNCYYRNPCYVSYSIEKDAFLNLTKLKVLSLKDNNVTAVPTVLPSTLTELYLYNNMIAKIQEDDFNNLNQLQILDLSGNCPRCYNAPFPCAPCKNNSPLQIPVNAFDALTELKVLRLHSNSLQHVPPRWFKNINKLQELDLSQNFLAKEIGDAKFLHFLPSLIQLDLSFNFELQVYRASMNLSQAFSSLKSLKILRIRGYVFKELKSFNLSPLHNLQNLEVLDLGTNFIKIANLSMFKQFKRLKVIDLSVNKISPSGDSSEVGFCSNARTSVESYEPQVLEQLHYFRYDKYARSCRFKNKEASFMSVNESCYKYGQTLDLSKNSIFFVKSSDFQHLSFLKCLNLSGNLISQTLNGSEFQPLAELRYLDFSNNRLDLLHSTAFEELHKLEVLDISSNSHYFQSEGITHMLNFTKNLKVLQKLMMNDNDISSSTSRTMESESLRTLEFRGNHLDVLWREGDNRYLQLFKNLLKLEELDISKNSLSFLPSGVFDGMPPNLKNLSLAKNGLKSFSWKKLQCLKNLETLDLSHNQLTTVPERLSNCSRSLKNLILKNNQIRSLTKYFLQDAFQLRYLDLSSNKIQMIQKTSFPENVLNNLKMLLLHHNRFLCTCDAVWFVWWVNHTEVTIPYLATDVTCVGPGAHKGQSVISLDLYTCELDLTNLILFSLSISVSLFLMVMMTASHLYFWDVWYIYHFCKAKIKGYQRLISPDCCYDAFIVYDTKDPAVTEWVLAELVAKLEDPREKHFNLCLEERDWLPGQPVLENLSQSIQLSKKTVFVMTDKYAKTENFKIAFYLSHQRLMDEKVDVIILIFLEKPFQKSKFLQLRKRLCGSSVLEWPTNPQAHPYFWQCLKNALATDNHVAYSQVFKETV
Description: This procedure describes a method for assaying human TLR7 (hTLR7) agonist activity of the compounds disclosed in this specification.
HEK-Blue™ TLR7 cells were added to each well of a 384-well tissue-culture plate (15,000 cells per well) and incubated 16-18 h at 37° C., 5% CO2. Compounds (100 nl) were dispensed into wells containing the HEK-Blue™ TLR cells and the treated cells were incubated at 37° C., 5% CO2. After 18 h treatment ten microliters of freshly-prepared Quanti-Blue™ reagent (Invivogen) was added to each well, incubated for 30 min (37° C., 5% CO2) and SEAP levels measured using an Envision plate reader (OD=620 nm). The half maximal effective concentration values (EC50; compound concentration which induced a response halfway between the assay baseline and maximum) were calculated.

SMILES	pEC50 (CD69)	pEC50 (human TLR7)
CCCCNc1nc(N)nc2c(C)nn(Cc3ccc(CNC4CCOCC4)cc3OC)c12 [Compound 104, N7-butyl-1-[(2-methoxy-4-{[(oxan-4-yl)amino]methyl}-phenyl)methyl]-3-methyl-1H-pyrazolo[4,3-d]pyrimidine-5,7-diamine]	7.38	7.04
CCCCNc1nc(N)nc2c(C)nn(Cc3ccc(CN4CCN(CC(C)(C)O)CC4)cc3OC)c12 [Compound 137, 1-{4-[(4-{[5-amino-7-(butylamino)-3-methyl-1H-pyrazolo[4,3-d]pyrimidin-1-yl]methyl}-3-methoxyphenyl)methyl]piperazin-1-yl}-2-methylpropan-2-ol]		7.18
CCCCNc1nc(N)nc2c(-c3ccncc3)nn(Cc3ccc(CNC4CCOCC4)cc3OC)c12 [Compound 112, N7-butyl-1-[(2-methoxy-4-{[(oxan-4-yl)amino]-methyl}phenyl)methyl]-3-(pyridin-4-yl)-1H-pyrazolo[4,3-d]pyrimidine-5,7-diamine]	6.00	5.61
CCCCNc1nc(N)nc2c(F)nn(Cc3ccc(CNC4CCC4)cc3OC)c12 [Compound 107, N7-butyl-1-({4-[(cyclobutylamino)methyl]-2-methoxyphenyl}methyl)-3-fluoro-1H-pyrazolo[4,3-d]pyrimidine-5,7-diamine]	7.55	7.33
CCCCNc1nc(N)nc2c(C)nn(Cc3ncc(CN4CCN(CCO)CC4)cc3OC)c12 [Compound 131, 2-{4-[(6-{[5-amino-7-(butyl-amino)-3-methyl-1H-pyrazolo[4,3-d]pyrimidin-1-yl]methyl}-5-methoxy-pyridin-3-yl)methyl]piperazin-1-yl}ethan-1-ol]	7.38	6.65
CCC[C@@H](CCO)Nc1nc(N)nc2c(C)nn(Cc3ccc(CN[C@@H]4CCCOC4)cc3OC)c12 [Compound 130, (3S)-3-[(5-amino-1-{[2-methoxy-4-({[(3R)-oxan-3-yl]amino}methyl)phenyl]-methyl}-3-methyl-1H-pyrazolo[4,3-d]pyrimidin-7-yl)amino]hexan-1-ol]	8.12	7.03
CCCCNc1nc(N)nc2c(-c3cccnc3)nn(Cc3ccc(CNC4CCOCC4)cc3OC)c12 [Compound 114, N7-butyl-1-[(2-methoxy-4-{[(oxan-4-yl)amino]methyl}-phenyl)methyl]-3-(pyridin-3-yl)-1H-pyrazolo[4,3-d]pyrimidine-5,7-diamine]	7.37	6.54
CCCCNc1nc(N)nc2c(C)nn(Cc3ccc(CN4CCN(CCOC)CC4)cc3OC)c12 [Compound 136, N7-butyl-1-[(2-methoxy-4-{[4-(2-methoxyethyl)piperazin-1-yl]methyl}phenyl)methyl]-3-methyl-1H-pyrazolo[4,3-d]pyrimidine-5,7-diamine]		6.79

Results, then the compound that gave them:

pEC50 (CD69)	pEC50 (human TLR7)	SMILES
8.08	7.92	CCCCNc1nc(N)nc2c(F)nn(Cc3ccc(CN4CCN(C)CC4)cc3OC)c12 [Compound 109, N7-butyl-3-fluoro-1-({2-methoxy-4-[(4-methyl-piperazin-1-yl)methyl]-phenyl}methyl)-1H-pyrazolo[4,3-d]pyrimidine-5,7-diamine]
7.46	6.68	CCCCNc1nc(N)nc2c(C3CC3)nn(Cc3ccc(CNC4CCOCC4)cc3OC)c12 [Compound 102, N7-butyl-3-cyclopropyl-1-[(2-methoxy-4-{[(oxan-4-yl)amino]methyl}phenyl)-methyl]-1H-pyrazolo[4,3-d]pyrimidine-5,7-diamine]
7.90	7.32	CCC[C@@H](CCO)Nc1nc(N)nc2c(F)nn(Cc3ccc(CN[C@H]4COC[C@@H]4O)cc3OC)c12 [Compound 133, (3R,4S)-4-[({4-[(5-amino-3-fluoro-7-{[(3S)-1-hydroxy-hexan-3-yl]amino}-1H-pyrazolo[4,3-d]pyrimidin-1-yl)-methyl]-3-methoxyphenyl}-methyl)amino]oxolan-3-ol]
6.70	6.48	CCCCNc1nc(N)nc2c(CO)nn(Cc3ccc(CN4CC(OC)C4)cc3OC)c12 [Compound 120, [5-amino-7-(butylamino)-1-({2-methoxy-4-[(3-methoxy-azetidin-1-yl)methyl]phenyl}-methyl)-1H-pyrazolo[4,3-d]pyrimidin-3-yl]methanol]
6.75	6.36	CCCCNc1nc(N)nc2c(CO)nn(Cc3ccc(CN4CCN(CCO)CC4)cc3OC)c12 [Compound 119, 2-{4-[(4-{[5-amino-7-(butyl-amino)-3-(hydroxymethyl)-1H-pyrazolo[4,3-d]pyrimidin-l-yl]methyl}-3-methoxy-phenyl)methyl]piperazin-1-yl}ethan-1-ol]
7.01	5.85	CCCCNc1nc(N)nc2c(Cl)nn(Cc3ccc(CNC4CCOCC4)cc3OC)c12 [Compound 111, N7-butyl-3-chloro-1-[(2-methoxy-4-{[(oxan-4-yl)amino]methyl}phenyl)-methyl]-1H-pyrazolo[4,3-d]pyrimidine-5,7-diamine]
6.00		CCCCNc1nc(N)nc2c(-c3ccccc3)nn(Cc3ccc(CNC4CCOCC4)cc3OC)c12 [Compound 113, N7-butyl-1-[(2-methoxy-4-{[(oxan-4-yl)amino]methyl}-phenyl)methyl]-3-phenyl-1H-pyrazolo[4,3-d]pyrimidine-5,7-diamine]
6.00		CCCCNc1nc(N)nc2c(C(F)(F)F)nn(Cc3ccc(CNC4CCOCC4)cc3OC)c12 [Compound 117, N7-butyl-1-[(2-methoxy-4-{[(oxan-4-yl)amino]methyl}-phenyl)methyl]-3-(trifluoro-methyl)-1H-pyrazolo[4,3-d]pyrimidine-5,7-diamine]
	5.96	CCC[C@@H](CCO)Nc1nc(N)nc2c(C)nn(Cc3ncc(CN4CCN(CCO)CC4)cc3OC)c12 [Compound 135, (3S)-3-({5-amino-1-[(5-{[4-(2-hydroxyethyl)piperazin-1-yl]methyl}-3-methoxypyridin-2-yl)methyl]-3-methyl-1H-pyrazolo[4,3-d]pyrimidin-7-yl}amino)hexan-1-ol]
